Measured values published in patent US8134000B2, “Imidazolyl pyrimidine inhibitor compounds” (Gilead Sciences, Inc., priority 2008, dated 2012).

Assays:
HDAC 1 = HDAC 1 (Homo sapiens, UniProt Q13547); assay: HDAC 1 inhibition assay with about 3 hours preincubation of enzyme and compound; assay type: biochemical; conditions: read-out: HDAC 1 inhibitory activity (IC50 [μM]) (3-hour preincubation)
Experimental: The second assay is similar to the first assay described above, except that preincubation is carried out for about 3 hours after the enzyme is introduced. The test compound was suspended in, and titrated in DMSO. It was then spotted into a 384-well test plate. The enzyme, HDAC 1, was diluted in the same assay buffer as used in the previous assay and added to the pre-spotted compound. The enzyme/compound mix was incubated at room temperature for about 3 hours. The peptide substrate containing a fluorophore/quencher pair was diluted in the assay buffer and added to the compound/enzyme mix initiating the reaction. The reaction incubated at room temperature for 45 minutes. A concentrated developer solution was diluted in the assay buffer, and added to the reaction. The reaction was incubated at room temperature for about 15 minutes and relative fluorescence was read on an instrument reader.

CDK2 = CDK2 (Homo sapiens, UniProt P24941); assay: CDK2 inhibition (IC50); assay type: biochemical

Chain of HDAC 1 (Q13547 whole entry, species assumed): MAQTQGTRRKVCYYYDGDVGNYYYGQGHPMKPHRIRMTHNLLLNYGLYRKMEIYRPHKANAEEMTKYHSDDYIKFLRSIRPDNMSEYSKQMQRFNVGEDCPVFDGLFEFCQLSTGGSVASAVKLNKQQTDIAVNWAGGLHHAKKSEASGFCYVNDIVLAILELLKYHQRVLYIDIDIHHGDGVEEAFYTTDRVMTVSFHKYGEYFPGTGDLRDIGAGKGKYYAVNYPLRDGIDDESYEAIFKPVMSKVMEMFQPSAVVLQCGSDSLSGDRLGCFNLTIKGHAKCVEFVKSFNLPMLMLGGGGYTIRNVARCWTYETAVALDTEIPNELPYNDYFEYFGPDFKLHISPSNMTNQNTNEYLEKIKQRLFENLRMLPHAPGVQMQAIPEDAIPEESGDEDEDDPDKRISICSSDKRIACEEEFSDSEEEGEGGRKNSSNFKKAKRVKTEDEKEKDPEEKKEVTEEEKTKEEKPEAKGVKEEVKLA

Row | IC50 (HDAC 1) [µM] | IC50 (CDK2) [µM] | SMILES
1 | 0.054 | 0.065 | Cc1ncc(-c2ccnc(Nc3ccc(C(=O)Nc4cc(-c5ccc(F)cc5)ccc4N)s3)n2)n1C(C)C [Example 13, N-(4-amino-4′-fluorobiphenyl-3-yl)-5-(4-(1-isopropyl-2-methylimidazol-5-yl)pyrimidin-2-ylamino)thiophene-2-carboxamide]
2 | 0.049 | 1.04 | Cc1ncc(-c2ccnc(Nc3ncc(C(=O)Nc4cc(-c5ccc(F)cc5)ccc4N)s3)n2)n1C(C)C [Example 15, N-(4-amino-4′-fluorobiphenyl-3-yl)-2-(4-(1-isopropyl-2-methylimidazol-5-yl)pyrimidin-2-ylamino)thiazole-5-carboxamide]
3 | 0.153 | 0.34 | Cc1ncc(-c2ncnc(Nc3ccc(C(=O)Nc4ccccc4N)cc3)n2)n1C(C)C [Example 12, N-(2-aminophenyl)-4-(4-(1-isopropyl-2-methylimidazol-5-yl)-1,3,5-triazin-2ylamino)benzamide]
4 | 0.034 | 0.026 | Cc1ncc(-c2ccnc(Nc3ccc(C(=O)Nc4cc(-c5cccs5)ccc4N)s3)n2)n1C(C)C [Example 10, N-(2-amino-5-(thiophen-2-yl)phenyl)-5-(4-(1-isopropyl-2-methylimidazol-5-yl)pyrimidin-2-ylamino)thiophene-2-carboxamide]
5 | 4.37 | 0.012 | Cc1ncc(-c2ccnc(Nc3ccc(C(=O)Nc4ccccc4N)s3)n2)n1C(C)C [Example 11, N-(2-aminophenyl)-5-(4-(1-isopropyl-2-methylimidazol-5-yl)pyrimidin-2-ylamino)thiophene-2-carboxamide]
6 | 0.809 | 0.02 | Cc1ncc(-c2ccnc(Nc3ccc(C(=O)Nc4cc(F)ccc4N)cc3)n2)n1C(C)C [Example 4, N-(2-amino-5-fluoro-phenyl)-4-[4-(1-isopropyl-2-methylimidazol-5-yl)-pyrimidin-2-ylamino]-benzamide]
7 | 0.037 | 0.025 | Cc1ncc(-c2nc(Nc3ccc(C(=O)Nc4cc(-c5cccs5)ccc4N)s3)ncc2F)n1C(C)C [Example 17, N-(2-amino-5-(thiophen-2-yl)phenyl)-5-(5-fluoro-4-(1-isopropyl-2-methylimidazol-5-yl)pyrimidin-2-ylamino)thiophene-2-carboxamide]
8 | 0.656 | 0.002 | Cc1ncc(-c2ccnc(Nc3ccc(C(=O)NO)s3)n2)n1C(C)C [Example 8, N-hydroxy-5-(4-(1-isopropyl-2-methylimidazol-5-yl)pyrimidin-2-ylamino)thiophene-2-carboxamide]
9 | 0.423 | > 40 | Cc1ncc(-c2cnnc(Nc3ccc(C(=O)Nc4ccccc4N)cc3)n2)n1C(C)C [Example 5, N-(2-aminophenyl)-4-(5-(1-isopropyl-2-methylimidazol-5-yl)-1,2,4-triazin-3-ylamino)benzamide]
10 | 0.241 | 0.01 | Cc1ncc(-c2ccnc(Nc3ccc(C(=O)NO)cc3)n2)n1C(C)C [Example 2, N-hydroxy-4-[4-(1-isopropyl-2-methylimidazol-5-yl)-pyrimidin-2-ylamino]-benzamide]
11 | 0.019 | 0.04 | Cc1ncc(-c2ccnc(Nc3ccc(C(=O)Nc4cc(-c5cccs5)ccc4N)cc3)n2)n1C(C)C [Example 3, N-(2-amino-5-thiophen-2-yl-phenyl)-4-[4-(1-isopropyl-2-methylimidazol-5-yl)-pyrimidin-2-ylamino]-benzamide]
12 | 0.028 | 0.99 | Cc1cc(C(=O)Nc2cc(-c3ccc(F)cc3)ccc2N)sc1Nc1nccc(-c2cnc(C)n2C(C)C)n1 [Example 14, N-(4-amino-4′-fluorobiphenyl-3-yl)-5-(4-(1-isopropyl-2-methylimidazol-5-yl)pyrimidin-2-ylamino)-4-methylthiophene-2-carboxamide]
13 | 0.032 | 2.15 | Cc1ncc(-c2ccnc(Nc3ncc(C(=O)Nc4cc(-c5cccs5)ccc4N)s3)n2)n1C(C)C [Example 16, N-(2-amino-5-(thiophen-2-yl)phenyl)-2-(4-(1-isopropyl-2-methylimidazol-5-yl)pyrimidin-2-ylamino)thiazole-5-carboxamide]
14 | 0.273 | 0.03 | Cc1ncc(-c2ccnc(Nc3ccc(C(=O)Nc4ccccc4N)cc3)n2)n1C(C)C [Example 1, N-(2-amino-phenyl)-4-[4-(1-isopropyl-2-methylimidazol-5-yl)-pyrimidin-2-ylamino]-benzamide]
15 | 0.04 | 0.027 | Cc1ncc(-c2ccnc(Nc3ccc(C(=O)Nc4cc(-c5ccc(F)cc5)ccc4N)cc3)n2)n1C(C)C [Example 9, N-(4-amino-4′-fluorobiphenyl-3-yl)-4-(4-(1-isopropyl-2-methylimidazol-5-yl)pyrimidin-2-ylamino)benzamide]
16 | 0.03 | > 40 | Cc1ncc(-c2cnnc(Nc3ccc(C(=O)Nc4cc(-c5cccs5)ccc4N)cc3)n2)n1C(C)C [Example 7, N-(2-amino-5-(thiophen-2-yl)phenyl)-4-(5-(1-isopropyl-2-methylimidazol-5-yl)-1,2,4-triazin-3-ylamino)benzamide]
17 | 0.41 | 2.1 | Cc1ncc(-c2ccnc(Nc3ncc(C(=O)Nc4ccccc4N)s3)n2)n1C(C)C [Example 18, N-(2-aminophenyl)-2-(4-(1-isopropyl-2-methylimidazol-5-yl)pyrimidin-2-ylamino)thiazole-5-carboxamide]
18 | > 10 | 0.01 | Cc1ncc(-c2ccnc(Nc3ccc(C(=O)Nc4cc(C(F)(F)F)ccc4N)cc3)n2)n1C(C)C [Example 6, N-(2-amino-5-(trifluoromethyl)phenyl)-4-(4-(1-isopropyl-2-methylimidazol-5-yl)pyrimidin-2-ylamino)benzamide]
